From patent publication US20260327211A1, “MODULATORS OF A POTASSIUM CHANNEL AND OF TRPV1 CHANNEL AND USES THEREOF” (Bsense Bio Therapeutics Ltd., priority 2023, published 2026)
Where two headings read alike, the source gives them in different places. One block for each molecule: values may come before it.

Legend:
Assay type in all cases: cell-based
rat DRG neurons [1] = test: Rat DRG neurons, current-evoked action potential firing; settings: for Inhibition of current induced AP response: 100 nM
Source text: (§1) rDRGs isolation and primary cell culture: Briefly, rat DRGs from all spinal levels were carefully removed and collected in HBSS on ices, connective tissue of the epineurium surrounding the ganglion was removed and cells were dissociated using Collagenase-II and trypsin dissociation solutions. DRGs were dissociated further, passed through glass Pasteur pipettes to obtain single cells. Then dissociation solution was changed to 5% FBS containing DRG neuronal culture medium and plated onto ECL coated 12 mm cover glass.
(§2) Additional rDRGs experiments were performed using Lonza primary neonatal rat (Sprague Dawley neonatal; P2,3) DRG neurons (R-DRG-505, Lonza) plated and cultured according to the manufacturer.
(§3) Electrophysiology: Cells were used for electrophysiological recording at least 48 hours following rDRG isolation or at least 5 days following cryopreserved rDRG thawing. Round small neurons (20-40 μm in diameter) were selected for electrophysiology recordings, to select for small nociceptive neurons that propagate pain sensation in vivo and that are expressing both Kv7.2/3 and TRPV1 targets. Membrane excitability was monitored using current clamp configuration of the whole-cell patch-clamp technique. Positive current steps of different amplitude were injected (400 ms) to induce spikes trains before and following compound application.

hERG = hERG (Homo sapiens, UniProt Q12809); test: hERG HCS, FLIPR potassium assay, CHO/hERG; parameters: host or cells: CHO; settings: at highest concentration shown, Table 1
Description: (§4) Cell culture: Chinese hamster ovary (CHO) cell-line cells with a constitutive expression of human hERG channels (B'SYS GmbH, Switzerland) were cultured in F-12 nutrient mixture (Biological Industries) supplemented with 10% fetal bovine serum (Biological Industries) and 1% penicillin-streptomycin (Biological Industries) in a humidified 5% CO2 incubator at 37° C. To maintain the hERG expression stability of the CHO cell line, antibiotics selection (G418 200 g/mL and Hygromycin 500) was applied.
FLIPR Potassium Assay Kit: The FLIPR Potassium Assay Kit (R8222 FLIPR Potassium Assay Explorer Kits, Molecular Devices) was used with CHO/hERG cell line, for screening compounds against the hERG ion-channel off-target, as detailed hereinabove.
According to optimization process, to achieve a uniform and consistent screening condition of molecules, the following protocol was established: Cells were seeded in 384-well, black-walled, clear-bottomed, at a density of 7,500 cells per well 24 hours before the assay conductance and incubated overnight in their normal growth medium. On the experiment day the medium was replaced with HBSS, HEPES, and the tested compound/vehicle (0.2% DMSO). Dye solution (prepared according to the manufacturer) was added to the wells and plates were incubated for 1.5 hour light-protected in room temperature. The Tecan Spark plate-reader injectors were primed with Tl+(1 mM Tl2SO4) or Tl++K+(1 mM Tl2SO4; 10 mM K2SO4) for channel activation and data correction. […]. To calculate IC50 values, the data was fitted to sigmoidal regression using Prism GraphPad.

rat DRG neurons [2] = test: Rat DRG neurons, capsaicin-evoked action potential firing; settings: for Inhibition of capsaicin induced AP response: 100 nM
Source text: as §1, §2, §3
To assess the potency of compounds using DRG neurons, the inhibitory potency for CAP-evoked action potential (AP) trains was measured. For this purpose, DRG membrane potential was continuously measured, and the following protocol was performed:
Cells were perfused with vehicle containing bath solution. After 30 seconds, CAP (1 μM) was applied for 6 seconds to activate TRPV1 and stimulate AP trains.
After 30 seconds of perfusion with bath solution containing only vehicle, perfusion was changed to a bath solution containing compound, and after 3 minutes of compound application, CAP (1 μM) was applied again for 6 seconds to activate TRPV1 and stimulate AP trains.
Cells perfusion was changed back to bath solution containing only vehicle and after 3 minutes of compound washout, CAP (1 μM) was applied again for 6 seconds to activate TRPV1 and stimulate AP trains.
To evaluate the drug/control response, the number of AP spikes induced by CAP following incubation with test compound was divided by the average number of control AP spikes induced without compound, before compound incubation, and following its washout.

hKv7.2/3 = biological target: T1, hKv7.2/3 (Homo sapiens, UniProt O43525+O43526); test: Kv7.2/7.3 HCS, FLIPR potassium (thallium) assay, CHO/hKv7.2/3
T1 construct: host or cells: CHO
Description: as §4, with “Kv7.2/3” for “hERG”, “the” for “the hERG expression”, “human Kv7.2/7.3 expression antibiotic” for “the CHO cell line, antibiotics”, “selection” for “selection (G418 200 g/mL and Hygromycin 500)”, “added (Puromycin 5 μg/ml).” for “applied.”
High content screen (HCS) using FLIPR Potassium Assay Kit: A FLIPR Potassium Assay Kit (R8222 FLIPR Potassium Assay Explorer Kits, Molecular Devices) was used with the CHO/hKv7.2/3 cell line to screen molecules against the hKv7.2/7.3 ion channel target. The assay exploits the permeability of thallium ions (Tl+) through potassium (K+) channels. In this assay, Tl+ indicator dye is used to produce a bright fluorescent signal upon the binding to Tl+ conducted through the potassium channels. The intensity of the Tl+ signal is proportional to the number of potassium channels in the open state. Therefore, it provides a functional indication of the potassium channel activity. To activate the voltage-gate potassium channels, the cells were stimulated with a mixture of K+ and Tl+ to depolarize the cell membrane. The fluorescence increase in the assay represents the influx of Tl+ into the cell specifically through the potassium channel, providing a functional read-out of hKv7.2/3 activity using a fluorescent plate reader coupled with injectors used to activate the channels.
According to optimization process to achieve uniform and consistent screening conditions the following protocol was established: Cells were seeded in 384-well, black-walled, clear-bottomed Greiner #781091, at a density of 5000 cells per well 24 hours before the assay conductance and incubated overnight in their normal growth medium. On the experiment day the medium was replaced with HBSS, HEPES, and the test compound/vehicle (0.2% DMSO). Dye solution (prepared according to the manufacturer) was added to the plates, which were incubated for 1.5 h light-protected in room temperature. Tecan Spark reader plate injectors were primed with Tl+(1 mM Tl2SO4) or Tl++K+(1 mM Tl2SO4; 5 mM K2SO4) for channel activation and data correction. […] To calculate EC50 values, the data was fitted to sigmoidal regression using Prism GraphPad. The fitting was constrained to a minimum of 1 and a maximal response of about 3.6 unless a different maximal response could be clearly identified.

hTRPV1 [3] = biological target: T2, hTRPV1 (Homo sapiens, UniProt Q8NER1); test: TRPV1 HCS, Fluo-8 calcium flux, capsaicin activation, CHO cells expressing hTRPV1
T2 construct: CDS of NM_080704.4, inserted into the multiple cloning site of pcDNA3.1(+); host or cells: CHO/hKv7.2/3
Description: as §4, with “with” for “with a”, “human hTRPV1” for “human hERG”, “the stable” for “the hERG”, “expression” for “expression stability”, “of hTRPV1, antibiotic” for “of the CHO cell line, antibiotics”, “(G418 500 μg/ml)” for “(G418 200 g/mL and Hygromycin 500)”
High content screen (HCS) using Fluo-8 No Wash Calcium flux Assay Kit: Fluo-8 No Wash Calcium Assay Kit (Abcam, ab112129) was used with CHO stably or transiently expressing TRPV1 to screen compounds against the hTRPV1 ion channel target. The cells were pre-loaded with Fluo-8AM which is membrane permeable. The AM groups of the Fluo-8AM were then being cleaved by intracellular esterase, trapping the Fluo8 in the cell. […] The relative fluorescence signal was calculated following background subtraction, comparing the fluorescence at each time point to its maximal level measured following Ionomycin application in the end.
According to optimization process to achieve uniform and consistent screening condition of molecules the following protocol was established: Cells were seeded in 384-well, black-walled, clear-bottomed, at a density of 5,000 cells per well 24 h before the assay conductance and incubated overnight in their normal growth medium. On the experiment day the medium was replaced in each well with HBSS, HEPES, and compound/vehicle (0.2% DMSO). Dye solution (prepared according to the manufacturer) was added to the wells and plates are incubated for 1.5 h light-protected in room temperature. The Tecan Spark plate reader injectors were then primed with capsaicin and Ionomycin for channel activation and data normalization, respectively. […] To calculate IC50 values, the data was fitted to sigmoidal regression line using Prism GraphPad. The fitting was constrained to a minimum of 0 and a maximal response of about 1 unless a different maximal response could be identified.

hTRPV1 [4] = biological target: T2, hTRPV1; test: hTRPV1 dual activity electrophysiology, CHO cells co-expressing hKv7.2/3 and hTRPV1; settings: with hKv7.2/3 activation
Description: Cell culture and DNA transfection: CHO/hKv7.2/3 cells were transfected with hTRPV1 DNA constructs (CDS of NM_080704.4, inserted into the multiple cloning site of pcDNA3.1(+) between the Hind III and BamH I restriction site, Genscript). For CHO transfection, 1×10^6 cells were suspended in a reaction mix (Amaxa™ 4D-Nucleofector™-LONZA) containing 5 μg of hTRPV1 DNA and 0.5 μg of GFP DNA (for cells selection) in a cuvette.
The cells were transformed (Amaxa, DT-133 program for CHO transfection with p-3 Kit) and recovered for 10 minutes at RT in the hood. Then cells were re-suspended in a 10 mL antibiotic (Ab)-free medium suspension and were plated on Gelatin or PLL-coated cover glass in different cell densities. On the next morning, the medium was changed to full medium containing the CHO/hKv7.2/3 cell line selection antibiotics.
Extracellular (Bath) solution: The solution was composed of (in mM): NaCl, 140; KCl, 4; CaCl2, 1.8; MgCl2, 1.2; Glucose, 11; HEPES, 5.5. pH was adjusted to 7.3 with NaOH. Osmolarity was adjusted to 310 mOsm with Sucrose.
Intracellular (Pipette) solution: Pipettes were pulled from borosilicate glass (Warner Instrument Corp, USA) with a resistance of 3-7 MΩ and were filled with internal solution composed of (in mM): KCl, 130; MgCl2, 1; K ATP, 5; EGTA, 5; HEPES, 10. pH was adjusted to 7.3 with KOH. Osmolarity was adjusted to 290 mOsm with Sucrose.
A programmable valve-linked pressurized perfusion system was used for local application of compounds nearby the cell recorded in a consistent flow rate of 2-3 mL/minute. Series resistance was corrected and data were sampled at 5 kHz and low pass filtered at 2.4 kHz using MultiClamp 700B amplifier with pCLAMP11 software (Molecular Devices, USA).
At least 48 hours following cell transfection and plating, cells were recorded to assess the TRPV1 dual activity. Membrane potential was held at −90 mV. To measure the inhibitory effects of the tested compounds on hTRPV1 dual activity the following protocol was performed:
Cells were perfused with vehicle-only containing bath solution. After 30 seconds, a single −40 mV 1.5 second step was applied for Kv7.2/3 activation and 30 seconds later capsaicin (1 μM) was applied for 6 seconds to activate the TRPV1.
Cells perfusion was changed to a compound-containing bath solution, and after 2 minutes and 30 seconds of compound application, a single −40 mV 1.5 second step was applied for Kv7.2/3 activation and 30 seconds later capsaicin (1 μM) was applied for 6 seconds to activate the TRPV1.
Cells perfusion was thereafter changed back to vehicle only-containing bath solution. After 30 seconds, a single −40 mV 1.5 step was applied for Kv7.2/3 activation and 30 seconds later capsaicin (1 μM) was applied for 6 seconds to activate the TRPV1 followed by a capsaicin wash out.
The drug current response, when capsaicin was injected following 3 minutes of pre-incubation with the test compound, was divided by the averaged control currents, induced without compound, before compound incubation and following its washout, to evaluate the drug/control response.

T1 sequence (O43525 whole entry): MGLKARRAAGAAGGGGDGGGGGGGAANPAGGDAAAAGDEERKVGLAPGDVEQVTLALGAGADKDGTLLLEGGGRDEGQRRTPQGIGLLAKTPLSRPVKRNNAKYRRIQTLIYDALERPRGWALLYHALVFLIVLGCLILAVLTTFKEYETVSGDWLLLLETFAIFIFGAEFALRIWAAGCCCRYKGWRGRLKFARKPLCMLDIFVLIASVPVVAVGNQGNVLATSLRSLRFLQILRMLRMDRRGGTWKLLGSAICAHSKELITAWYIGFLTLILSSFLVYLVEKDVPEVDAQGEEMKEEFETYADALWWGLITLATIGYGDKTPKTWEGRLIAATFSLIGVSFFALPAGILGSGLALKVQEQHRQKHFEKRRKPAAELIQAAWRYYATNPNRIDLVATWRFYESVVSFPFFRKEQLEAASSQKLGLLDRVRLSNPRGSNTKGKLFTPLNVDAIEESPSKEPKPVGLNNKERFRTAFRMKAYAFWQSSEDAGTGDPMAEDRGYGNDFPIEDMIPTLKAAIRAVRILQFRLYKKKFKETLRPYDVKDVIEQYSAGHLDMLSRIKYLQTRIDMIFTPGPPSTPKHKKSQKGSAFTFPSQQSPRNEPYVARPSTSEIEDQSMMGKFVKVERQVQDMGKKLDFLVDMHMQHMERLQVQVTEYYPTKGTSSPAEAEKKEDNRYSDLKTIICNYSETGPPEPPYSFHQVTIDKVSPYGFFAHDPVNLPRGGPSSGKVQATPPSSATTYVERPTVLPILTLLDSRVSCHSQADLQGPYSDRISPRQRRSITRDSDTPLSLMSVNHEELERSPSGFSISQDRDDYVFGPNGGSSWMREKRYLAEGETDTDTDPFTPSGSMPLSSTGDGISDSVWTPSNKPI
T1 sequence (O43526 whole entry): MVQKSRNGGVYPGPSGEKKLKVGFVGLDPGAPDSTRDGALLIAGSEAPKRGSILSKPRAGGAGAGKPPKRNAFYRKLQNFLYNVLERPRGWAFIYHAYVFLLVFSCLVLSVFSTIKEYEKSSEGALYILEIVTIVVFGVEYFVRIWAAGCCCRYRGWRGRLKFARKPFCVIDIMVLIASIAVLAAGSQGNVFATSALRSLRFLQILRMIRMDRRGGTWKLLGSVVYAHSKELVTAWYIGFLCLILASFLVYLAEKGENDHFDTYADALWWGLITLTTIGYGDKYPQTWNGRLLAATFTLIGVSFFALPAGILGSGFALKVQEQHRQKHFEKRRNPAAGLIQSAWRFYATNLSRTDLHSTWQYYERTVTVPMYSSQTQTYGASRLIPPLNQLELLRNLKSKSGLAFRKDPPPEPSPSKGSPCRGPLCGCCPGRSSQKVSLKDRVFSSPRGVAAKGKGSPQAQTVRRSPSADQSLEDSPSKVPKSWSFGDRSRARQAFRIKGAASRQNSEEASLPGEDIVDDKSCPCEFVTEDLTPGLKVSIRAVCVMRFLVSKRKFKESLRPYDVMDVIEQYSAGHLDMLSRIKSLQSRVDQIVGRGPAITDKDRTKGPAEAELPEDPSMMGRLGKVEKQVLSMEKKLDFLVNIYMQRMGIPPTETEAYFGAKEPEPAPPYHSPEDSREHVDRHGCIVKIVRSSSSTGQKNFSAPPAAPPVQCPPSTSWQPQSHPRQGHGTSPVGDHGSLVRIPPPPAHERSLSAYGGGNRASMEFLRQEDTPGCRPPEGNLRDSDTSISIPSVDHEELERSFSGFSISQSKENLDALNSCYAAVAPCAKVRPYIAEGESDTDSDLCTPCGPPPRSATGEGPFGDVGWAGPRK
T2 sequence (Q8NER1 whole entry): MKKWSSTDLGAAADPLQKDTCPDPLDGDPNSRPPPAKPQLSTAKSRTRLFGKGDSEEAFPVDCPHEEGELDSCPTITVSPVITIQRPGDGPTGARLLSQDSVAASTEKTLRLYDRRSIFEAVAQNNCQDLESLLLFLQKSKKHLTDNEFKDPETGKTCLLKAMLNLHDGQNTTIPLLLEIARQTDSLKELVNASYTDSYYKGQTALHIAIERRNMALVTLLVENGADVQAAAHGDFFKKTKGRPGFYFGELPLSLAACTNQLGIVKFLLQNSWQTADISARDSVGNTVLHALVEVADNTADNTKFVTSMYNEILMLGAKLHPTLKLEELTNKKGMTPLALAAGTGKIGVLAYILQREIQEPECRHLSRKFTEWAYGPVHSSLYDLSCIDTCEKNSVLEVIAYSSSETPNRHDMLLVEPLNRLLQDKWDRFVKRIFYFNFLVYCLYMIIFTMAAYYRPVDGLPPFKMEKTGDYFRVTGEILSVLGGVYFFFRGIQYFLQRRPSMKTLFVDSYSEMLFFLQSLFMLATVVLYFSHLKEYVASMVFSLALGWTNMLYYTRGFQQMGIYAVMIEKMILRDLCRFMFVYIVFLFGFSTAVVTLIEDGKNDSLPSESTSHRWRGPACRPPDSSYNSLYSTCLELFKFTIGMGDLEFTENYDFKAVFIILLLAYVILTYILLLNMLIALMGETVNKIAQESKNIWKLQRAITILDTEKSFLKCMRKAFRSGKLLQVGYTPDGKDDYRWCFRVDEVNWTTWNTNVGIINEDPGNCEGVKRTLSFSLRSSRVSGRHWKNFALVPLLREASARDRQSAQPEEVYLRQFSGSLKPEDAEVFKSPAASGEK
hERG, sequence (Q12809 whole entry): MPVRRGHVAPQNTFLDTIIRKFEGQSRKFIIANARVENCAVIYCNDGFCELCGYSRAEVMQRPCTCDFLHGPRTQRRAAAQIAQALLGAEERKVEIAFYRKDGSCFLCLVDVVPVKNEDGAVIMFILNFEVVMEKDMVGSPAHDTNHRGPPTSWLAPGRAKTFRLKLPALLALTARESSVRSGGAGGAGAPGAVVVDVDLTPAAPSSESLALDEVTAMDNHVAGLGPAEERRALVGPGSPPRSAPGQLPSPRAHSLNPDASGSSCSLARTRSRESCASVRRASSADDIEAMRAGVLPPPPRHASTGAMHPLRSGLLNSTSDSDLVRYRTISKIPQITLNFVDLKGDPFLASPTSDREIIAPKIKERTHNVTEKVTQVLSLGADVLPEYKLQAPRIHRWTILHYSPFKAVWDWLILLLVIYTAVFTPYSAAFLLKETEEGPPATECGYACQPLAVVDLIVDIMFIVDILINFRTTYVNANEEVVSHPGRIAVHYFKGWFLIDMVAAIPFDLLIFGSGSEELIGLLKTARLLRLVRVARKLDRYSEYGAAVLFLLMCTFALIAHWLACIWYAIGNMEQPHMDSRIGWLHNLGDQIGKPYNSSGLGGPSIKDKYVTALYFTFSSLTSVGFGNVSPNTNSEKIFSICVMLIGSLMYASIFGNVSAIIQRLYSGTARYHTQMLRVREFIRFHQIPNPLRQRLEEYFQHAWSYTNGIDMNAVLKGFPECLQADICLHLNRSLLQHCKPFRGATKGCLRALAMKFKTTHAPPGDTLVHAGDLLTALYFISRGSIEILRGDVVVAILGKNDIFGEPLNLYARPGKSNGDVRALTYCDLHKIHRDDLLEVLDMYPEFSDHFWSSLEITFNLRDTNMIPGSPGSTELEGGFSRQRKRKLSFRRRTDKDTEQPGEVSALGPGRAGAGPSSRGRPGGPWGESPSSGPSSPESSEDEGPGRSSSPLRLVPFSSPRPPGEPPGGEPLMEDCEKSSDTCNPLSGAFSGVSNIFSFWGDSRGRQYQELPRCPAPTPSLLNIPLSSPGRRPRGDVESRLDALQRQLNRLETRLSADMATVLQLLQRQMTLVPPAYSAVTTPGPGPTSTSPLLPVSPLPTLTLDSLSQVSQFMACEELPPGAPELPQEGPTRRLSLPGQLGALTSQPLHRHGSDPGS

EC50 (hKv7.2/3; Table 1, read-out: Kv7.2/7.3 IC50): 1500 nM
SMILES: CC(C)c1cc(Cl)cc(Cl)c1C(O)c1ccc(F)c(CC(=O)NCC2(O)CCC2)c1 (racemic) [Compound 533 racemic]
Inhibition of current induced AP response (rat DRG neurons [1]): reduced current induced AP inhibition
hERG IC50 (inhibition in parentheses) (hERG): 0%
Inhibition of capsaicin induced AP response (rat DRG neurons [2]): highly potentiating capsaicin induced AP inhibition

TRPV1 modulation (words) (hTRPV1 [3]): activates hTRPV1
TRPV1 modulation (words) (hTRPV1 [3]; listed as 533P2): activating TRPV1
Kv7.2/3 activation (words) (hKv7.2/3): higher
Kv7.2/3 activation (words) (hKv7.2/3; listed as 533P2): more potent activation of Kv7.2/3
SMILES: CC(C)c1cc(Cl)cc(Cl)c1C(O)c1ccc(F)c(CC(=O)NCC2(O)CCC2)c1 (single isomer, unassigned) [Compound 533p2]
Inhibition of current induced AP response (rat DRG neurons [1]; 0.1 µM): inhibits the current-evoked rat DRGs spiking
Inhibition of current induced AP response (rat DRG neurons [1]; listed as 533P2, 0.1 µM): inhibits current induced AP
Inhibition of capsaicin induced AP response (rat DRG neurons [2]; 0.1 µM): facilitated
Inhibition of capsaicin induced AP response (rat DRG neurons [2]; listed as 533P2, 0.1 µM): potentiates capsaicin induced AP

hTRPV1 inhibition potency, Kv7.2/3 co-expressed and activated (hTRPV1 [4]): failure to gain TRPV1-inhibition potency
SMILES: CC(C)(C)c1ccc(/C=C/C(=O)Nc2ccc3c(c2)OCCO3)cc1 [AMG9810, reference compound]
Current evoked response (rat DRG neurons [1]; 50 nM): remains unchanged
Inhibition of capsaicin evoked firing (rat DRG neurons [2]; 50 nM): about 50%
